Numbers after ± are expanded uncertainties.
Assays:
[1] = excess molar enthalpy (molar enthalpy of mixing); xn = mol fraction of the nth substance listed; conditions: 323.15 K, Liquid, Flow calorimetry
[2] = 323.15 K; Liquid; mass and volume balance equations

SMILES: C=CCCCCCCCC [1-decene] + COC
- excess molar enthalpy ([1]; x2 = 0.1265): 0.0311 ± 0.00103 kcal/mol
- excess molar enthalpy ([1]; x2 = 0.2342): 0.0555 ± 0.00124 kcal/mol
- excess molar enthalpy ([1]; x2 = 0.3269): 0.0716 ± 0.00158 kcal/mol
- excess molar enthalpy ([1]; x2 = 0.4076): 0.0824 ± 0.00182 kcal/mol
- excess molar enthalpy ([1]; x2 = 0.4784): 0.0877 ± 0.00191 kcal/mol
- excess molar enthalpy ([1]; x2 = 0.5411): 0.0904 ± 0.00198 kcal/mol
- excess molar enthalpy ([1]; x2 = 0.5971): 0.0902 ± 0.00198 kcal/mol
- excess molar enthalpy ([1]; x2 = 0.6472): 0.0877 ± 0.00191 kcal/mol
- excess molar enthalpy ([1]; x2 = 0.6924): 0.0838 ± 0.00184 kcal/mol
- excess molar enthalpy ([1]; x2 = 0.7335): 0.0787 ± 0.00172 kcal/mol
- excess molar enthalpy ([1]; x2 = 0.7708): 0.072 ± 0.0016 kcal/mol
- excess molar enthalpy ([1]; x2 = 0.805): 0.065 ± 0.00143 kcal/mol
- excess molar enthalpy ([1]; x2 = 0.8363): 0.0576 ± 0.00129 kcal/mol
- excess molar enthalpy ([1]; x2 = 0.8652): 0.0495 ± 0.00112 kcal/mol
- excess molar enthalpy ([1]; x2 = 0.892): 0.0415 ± 0.00105 kcal/mol
- excess molar enthalpy ([1]; x2 = 0.9167): 0.0332 ± 0.00103 kcal/mol
- excess molar enthalpy ([1]; x2 = 0.9397): 0.0247 ± 0.00103 kcal/mol
- excess molar enthalpy ([1]; x2 = 0.9612): 0.0163 ± 0.001 kcal/mol
- excess molar enthalpy ([1]; x2 = 0.9812): 0.00806 ± 0.00098 kcal/mol

SMILES: c1ccccc1 [benzene]
- vapor or sublimation pressure [2]: 35.47 ± 0.11 kPa

SMILES: CCCCCCCCCC [decane]
- vapor or sublimation pressure [2]: 1.18 ± 0.04 kPa

SMILES: COC [dimethyl ether]
- vapor or sublimation pressure [2]: 1144.2 ± 3.5 kPa [middle of 6 runs]

SMILES: COC [dimethyl ether] + CCCCCCCCCC
- excess molar enthalpy ([1]; x1 = 0.1299): 0.0567 ± 0.00127 kcal/mol
- excess molar enthalpy ([1]; x1 = 0.2396): 0.0977 ± 0.00213 kcal/mol
- excess molar enthalpy ([1]; x1 = 0.3336): 0.126 ± 0.00263 kcal/mol
- excess molar enthalpy ([1]; x1 = 0.4149): 0.143 ± 0.00311 kcal/mol
- excess molar enthalpy ([1]; x1 = 0.486): 0.152 ± 0.00335 kcal/mol
- excess molar enthalpy ([1]; x1 = 0.5487): 0.156 ± 0.00335 kcal/mol
- excess molar enthalpy ([1]; x1 = 0.6043): 0.156 ± 0.00335 kcal/mol
- excess molar enthalpy ([1]; x1 = 0.6541): 0.151 ± 0.00335 kcal/mol
- excess molar enthalpy ([1]; x1 = 0.6989): 0.145 ± 0.00311 kcal/mol
- excess molar enthalpy ([1]; x1 = 0.7393): 0.137 ± 0.00287 kcal/mol
- excess molar enthalpy ([1]; x1 = 0.7761): 0.126 ± 0.00263 kcal/mol
- excess molar enthalpy ([1]; x1 = 0.8097): 0.114 ± 0.00239 kcal/mol
- excess molar enthalpy ([1]; x1 = 0.8405): 0.102 ± 0.00222 kcal/mol
- excess molar enthalpy ([1]; x1 = 0.8687): 0.0887 ± 0.00194 kcal/mol
- excess molar enthalpy ([1]; x1 = 0.8948): 0.0747 ± 0.00165 kcal/mol
- excess molar enthalpy ([1]; x1 = 0.919): 0.0603 ± 0.00134 kcal/mol
- excess molar enthalpy ([1]; x1 = 0.9414): 0.0454 ± 0.00108 kcal/mol
- excess molar enthalpy ([1]; x1 = 0.9623): 0.0305 ± 0.00103 kcal/mol
- excess molar enthalpy ([1]; x1 = 0.9818): 0.015 ± 0.001 kcal/mol

SMILES: COC [dimethyl ether] + CCCCCCCCCCCC
- excess molar enthalpy ([1]; x1 = 0.1484): 0.067 ± 0.00148 kcal/mol
- excess molar enthalpy ([1]; x1 = 0.269): 0.111 ± 0.00239 kcal/mol
- excess molar enthalpy ([1]; x1 = 0.3688): 0.14 ± 0.00311 kcal/mol
- excess molar enthalpy ([1]; x1 = 0.4529): 0.157 ± 0.00335 kcal/mol
- excess molar enthalpy ([1]; x1 = 0.5247): 0.164 ± 0.00359 kcal/mol
- excess molar enthalpy ([1]; x1 = 0.5866): 0.167 ± 0.00359 kcal/mol
- excess molar enthalpy ([1]; x1 = 0.6407): 0.164 ± 0.00359 kcal/mol
- excess molar enthalpy ([1]; x1 = 0.6882): 0.158 ± 0.00335 kcal/mol
- excess molar enthalpy ([1]; x1 = 0.7304): 0.149 ± 0.00335 kcal/mol
- excess molar enthalpy ([1]; x1 = 0.7681): 0.139 ± 0.00311 kcal/mol
- excess molar enthalpy ([1]; x1 = 0.8019): 0.127 ± 0.00287 kcal/mol
- excess molar enthalpy ([1]; x1 = 0.8324): 0.115 ± 0.00239 kcal/mol
- excess molar enthalpy ([1]; x1 = 0.8601): 0.101 ± 0.0022 kcal/mol
- excess molar enthalpy ([1]; x1 = 0.8854): 0.0873 ± 0.00191 kcal/mol
- excess molar enthalpy ([1]; x1 = 0.9085): 0.0732 ± 0.00163 kcal/mol
- excess molar enthalpy ([1]; x1 = 0.9298): 0.059 ± 0.00131 kcal/mol
- excess molar enthalpy ([1]; x1 = 0.9494): 0.0441 ± 0.00108 kcal/mol
- excess molar enthalpy ([1]; x1 = 0.9675): 0.0295 ± 0.00103 kcal/mol
- excess molar enthalpy ([1]; x1 = 0.9844): 0.0145 ± 0.001 kcal/mol

SMILES: COC [dimethyl ether] + Cc1ccccc1
- excess molar enthalpy ([1]; x1 = 0.0753): -0.0117 ± 0.00098 kcal/mol
- excess molar enthalpy ([1]; x1 = 0.1467): -0.0217 ± 0.001 kcal/mol
- excess molar enthalpy ([1]; x1 = 0.2145): -0.0306 ± 0.000956 kcal/mol
- excess molar enthalpy ([1]; x1 = 0.279): -0.0378 ± 0.000956 kcal/mol
- excess molar enthalpy ([1]; x1 = 0.3403): -0.043 ± 0.000956 kcal/mol
- excess molar enthalpy ([1]; x1 = 0.3988): -0.0476 ± 0.0012 kcal/mol
- excess molar enthalpy ([1]; x1 = 0.4545): -0.0509 ± 0.0012 kcal/mol
- excess molar enthalpy ([1]; x1 = 0.5078): -0.0533 ± 0.0012 kcal/mol
- excess molar enthalpy ([1]; x1 = 0.5587): -0.054 ± 0.0012 kcal/mol
- excess molar enthalpy ([1]; x1 = 0.6075): -0.0545 ± 0.0012 kcal/mol
- excess molar enthalpy ([1]; x1 = 0.6541): -0.0535 ± 0.0012 kcal/mol
- excess molar enthalpy ([1]; x1 = 0.6989): -0.0516 ± 0.0012 kcal/mol
- excess molar enthalpy ([1]; x1 = 0.7419): -0.0492 ± 0.0012 kcal/mol
- excess molar enthalpy ([1]; x1 = 0.7831): -0.0454 ± 0.0012 kcal/mol
- excess molar enthalpy ([1]; x1 = 0.8228): -0.0406 ± 0.000956 kcal/mol
- excess molar enthalpy ([1]; x1 = 0.8609): -0.0351 ± 0.000956 kcal/mol
- excess molar enthalpy ([1]; x1 = 0.8976): -0.0282 ± 0.000956 kcal/mol
- excess molar enthalpy ([1]; x1 = 0.933): -0.0199 ± 0.001 kcal/mol
- excess molar enthalpy ([1]; x1 = 0.9671): -0.0106 ± 0.00098 kcal/mol

SMILES: COC [dimethyl ether] + O
- excess molar enthalpy ([1]; x1 = 0.0137): -0.0315 ± 0.000956 kcal/mol
- excess molar enthalpy ([1]; x1 = 0.0363): -0.0758 ± 0.00167 kcal/mol
- excess molar enthalpy ([1]; x1 = 0.0808): -0.13 ± 0.00287 kcal/mol
- excess molar enthalpy ([1]; x1 = 0.1366): -0.154 ± 0.00335 kcal/mol
- excess molar enthalpy ([1]; x1 = 0.2087): -0.131 ± 0.00287 kcal/mol
- excess molar enthalpy ([1]; x1 = 0.3054): -0.0954 ± 0.00215 kcal/mol
- excess molar enthalpy ([1]; x1 = 0.4418): -0.0449 ± 0.0012 kcal/mol
- excess molar enthalpy ([1]; x1 = 0.5543): -0.00351 ± 0.00098 kcal/mol
- excess molar enthalpy ([1]; x1 = 0.6487): 0.0315 ± 0.000956 kcal/mol
- excess molar enthalpy ([1]; x1 = 0.7036): 0.0516 ± 0.0012 kcal/mol
- excess molar enthalpy ([1]; x1 = 0.7649): 0.0736 ± 0.00167 kcal/mol
- excess molar enthalpy ([1]; x1 = 0.8337): 0.0987 ± 0.00215 kcal/mol
- excess molar enthalpy ([1]; x1 = 0.8713): 0.0956 ± 0.00215 kcal/mol
- excess molar enthalpy ([1]; x1 = 0.9114): 0.0832 ± 0.00191 kcal/mol
- excess molar enthalpy ([1]; x1 = 0.9542): 0.0581 ± 0.0012 kcal/mol

SMILES: COC [dimethyl ether] + c1ccccc1
- excess molar enthalpy ([1]; x1 = 0.0637): -0.00798 ± 0.00098 kcal/mol
- excess molar enthalpy ([1]; x1 = 0.1256): -0.0153 ± 0.001 kcal/mol
- excess molar enthalpy ([1]; x1 = 0.1857): -0.0226 ± 0.001 kcal/mol
- excess molar enthalpy ([1]; x1 = 0.2442): -0.0287 ± 0.000956 kcal/mol
- excess molar enthalpy ([1]; x1 = 0.3011): -0.0337 ± 0.000956 kcal/mol
- excess molar enthalpy ([1]; x1 = 0.3565): -0.0382 ± 0.000956 kcal/mol
- excess molar enthalpy ([1]; x1 = 0.4104): -0.0421 ± 0.000956 kcal/mol
- excess molar enthalpy ([1]; x1 = 0.4628): -0.0449 ± 0.0012 kcal/mol
- excess molar enthalpy ([1]; x1 = 0.514): -0.0468 ± 0.0012 kcal/mol
- excess molar enthalpy ([1]; x1 = 0.5638): -0.0478 ± 0.0012 kcal/mol
- excess molar enthalpy ([1]; x1 = 0.6124): -0.0478 ± 0.0012 kcal/mol
- excess molar enthalpy ([1]; x1 = 0.6597): -0.0471 ± 0.0012 kcal/mol
- excess molar enthalpy ([1]; x1 = 0.7059): -0.0452 ± 0.0012 kcal/mol
- excess molar enthalpy ([1]; x1 = 0.751): -0.0428 ± 0.000956 kcal/mol
- excess molar enthalpy ([1]; x1 = 0.795): -0.0385 ± 0.000956 kcal/mol
- excess molar enthalpy ([1]; x1 = 0.8379): -0.0337 ± 0.000956 kcal/mol
- excess molar enthalpy ([1]; x1 = 0.8799): -0.0275 ± 0.000956 kcal/mol
- excess molar enthalpy ([1]; x1 = 0.9208): -0.0196 ± 0.001 kcal/mol
- excess molar enthalpy ([1]; x1 = 0.9609): -0.0104 ± 0.00098 kcal/mol

SMILES: CCCCCCCCCCCC [dodecane]
- vapor or sublimation pressure [2]: 0.2 ± 0.04 kPa

SMILES: C=CCCCCCC [oct-1-ene]
- vapor or sublimation pressure [2]: 8.3 ± 0.05 kPa

SMILES: C=CCCCCCC [oct-1-ene] + COC
- excess molar enthalpy ([1]; x2 = 0.1071): 0.0249 ± 0.00103 kcal/mol
- excess molar enthalpy ([1]; x2 = 0.2021): 0.0447 ± 0.00108 kcal/mol
- excess molar enthalpy ([1]; x2 = 0.2868): 0.0593 ± 0.00131 kcal/mol
- excess molar enthalpy ([1]; x2 = 0.363): 0.0695 ± 0.00153 kcal/mol
- excess molar enthalpy ([1]; x2 = 0.4317): 0.0758 ± 0.00167 kcal/mol
- excess molar enthalpy ([1]; x2 = 0.4941): 0.0792 ± 0.00174 kcal/mol
- excess molar enthalpy ([1]; x2 = 0.551): 0.0801 ± 0.00177 kcal/mol
- excess molar enthalpy ([1]; x2 = 0.6031): 0.0793 ± 0.00174 kcal/mol
- excess molar enthalpy ([1]; x2 = 0.6509): 0.077 ± 0.0017 kcal/mol
- excess molar enthalpy ([1]; x2 = 0.695): 0.0734 ± 0.00163 kcal/mol
- excess molar enthalpy ([1]; x2 = 0.7358): 0.0678 ± 0.00151 kcal/mol
- excess molar enthalpy ([1]; x2 = 0.7737): 0.0622 ± 0.00139 kcal/mol
- excess molar enthalpy ([1]; x2 = 0.8089): 0.0556 ± 0.00124 kcal/mol
- excess molar enthalpy ([1]; x2 = 0.8417): 0.0486 ± 0.0011 kcal/mol
- excess molar enthalpy ([1]; x2 = 0.8724): 0.0416 ± 0.00105 kcal/mol
- excess molar enthalpy ([1]; x2 = 0.9011): 0.0334 ± 0.00103 kcal/mol
- excess molar enthalpy ([1]; x2 = 0.9281): 0.0253 ± 0.00103 kcal/mol
- excess molar enthalpy ([1]; x2 = 0.9535): 0.017 ± 0.001 kcal/mol
- excess molar enthalpy ([1]; x2 = 0.9774): 0.00842 ± 0.00098 kcal/mol

SMILES: Cc1ccccc1 [toluene]
- vapor or sublimation pressure [2]: 12.22 ± 0.05 kPa

SMILES: O [water]
- vapor or sublimation pressure [2]: 12.29 ± 0.05 kPa

— the NIST ThermoML archive (doi:10.1021/je700174h)
